{"source": "patent US20020032228A1", "about": "(priority 2000, published 2002)", "key": {"[1]": {"tested_on": "mouse intestinal loops challenged with cholera toxin", "assay_type": "in vivo"}, "[2]": {"biological_target": "Adenylate Cyclase (Bordetella pertussis, UniProt P0DKX7)", "sequence (P0DKX7 whole entry, looked up)": "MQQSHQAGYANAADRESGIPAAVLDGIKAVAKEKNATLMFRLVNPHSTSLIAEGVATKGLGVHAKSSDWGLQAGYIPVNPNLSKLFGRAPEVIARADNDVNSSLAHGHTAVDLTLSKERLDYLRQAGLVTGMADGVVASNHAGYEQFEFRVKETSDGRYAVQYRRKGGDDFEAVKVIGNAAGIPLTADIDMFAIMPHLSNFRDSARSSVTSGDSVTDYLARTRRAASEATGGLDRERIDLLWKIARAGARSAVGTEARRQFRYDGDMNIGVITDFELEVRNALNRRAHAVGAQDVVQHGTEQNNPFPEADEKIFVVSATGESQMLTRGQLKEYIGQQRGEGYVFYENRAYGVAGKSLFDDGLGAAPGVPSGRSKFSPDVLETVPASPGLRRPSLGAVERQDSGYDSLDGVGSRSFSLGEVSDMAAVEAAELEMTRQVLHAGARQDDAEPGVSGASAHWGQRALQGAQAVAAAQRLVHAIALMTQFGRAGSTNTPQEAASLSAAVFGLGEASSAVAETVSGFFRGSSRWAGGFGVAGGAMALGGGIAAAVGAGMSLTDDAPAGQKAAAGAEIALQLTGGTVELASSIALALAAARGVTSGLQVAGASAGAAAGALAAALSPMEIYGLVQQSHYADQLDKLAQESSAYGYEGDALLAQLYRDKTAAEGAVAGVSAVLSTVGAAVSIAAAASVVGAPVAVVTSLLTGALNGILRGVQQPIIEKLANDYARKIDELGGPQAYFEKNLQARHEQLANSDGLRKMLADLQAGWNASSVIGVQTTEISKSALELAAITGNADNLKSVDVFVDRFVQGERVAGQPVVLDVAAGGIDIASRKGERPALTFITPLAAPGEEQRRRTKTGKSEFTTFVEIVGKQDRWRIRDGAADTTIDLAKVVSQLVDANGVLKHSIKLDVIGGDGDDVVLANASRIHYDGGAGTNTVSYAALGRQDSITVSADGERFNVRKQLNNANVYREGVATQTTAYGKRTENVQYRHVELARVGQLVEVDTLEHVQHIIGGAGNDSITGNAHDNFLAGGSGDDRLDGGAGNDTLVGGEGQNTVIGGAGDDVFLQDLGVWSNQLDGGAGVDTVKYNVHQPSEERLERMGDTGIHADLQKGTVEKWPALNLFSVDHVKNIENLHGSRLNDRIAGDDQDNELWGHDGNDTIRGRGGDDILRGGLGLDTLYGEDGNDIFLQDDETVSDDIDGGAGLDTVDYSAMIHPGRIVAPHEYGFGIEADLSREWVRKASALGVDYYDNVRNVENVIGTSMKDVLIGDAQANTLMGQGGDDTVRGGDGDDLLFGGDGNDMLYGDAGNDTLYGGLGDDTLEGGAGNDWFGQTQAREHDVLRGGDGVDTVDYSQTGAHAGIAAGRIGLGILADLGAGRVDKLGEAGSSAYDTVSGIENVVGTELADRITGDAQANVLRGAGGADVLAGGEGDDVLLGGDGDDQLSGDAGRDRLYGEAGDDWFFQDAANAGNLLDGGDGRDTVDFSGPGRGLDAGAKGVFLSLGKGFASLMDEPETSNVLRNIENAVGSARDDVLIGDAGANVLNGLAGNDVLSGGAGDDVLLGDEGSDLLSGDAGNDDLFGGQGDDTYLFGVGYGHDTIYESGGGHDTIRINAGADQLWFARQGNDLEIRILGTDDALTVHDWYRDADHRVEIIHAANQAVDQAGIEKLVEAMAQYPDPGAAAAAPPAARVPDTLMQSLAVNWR", "test": "biochemical", "assay_type": "biochemical"}, "[3]": {"tested_on": "Xenopus laevis epidermis", "assay_type": "cell-based"}, "[4]": {"tested_on": "mouse intestinal loops challenged with cholera toxin", "assay_type": "in vivo", "conditions": "6 hour"}, "[5]": {"conditions": "168 h, pH 5.5"}, "[6]": {"test": "physchem", "conditions": "pH 5.5"}, "[7]": {"tested_on": "CHO cells", "assay_type": "cell-based, Chinese hamster"}, "[8]": {"conditions": "enzyme 4.6 nmoles, imidazole 2.7 mmoles, PGE2-Histidine adduct 52 μmoles, celecoxib 0.52 mmoles"}}, "note": "“Also recorded” adds a separate entry of the source. Read-outs that look alike come from different tables or passages of the source.", "data": [{"molecule": "prostaglandin E2-histidine [PGE2-histidine]", "values": [{"measurement": "inhibition of the CT fluid response", "setting": "[1]; mouse, in vivo", "result": "virtually complete inhibition"}, {"measurement": "inhibition of adenylate cyclase enzyme activity (FIG. 12)", "setting": "[2]", "result": "inhibit adenylate cyclase enzyme activity"}, {"measurement": "IC50", "setting": "[2]; read-out: IC50 dose inhibiting 50% of the enzyme activity", "result": 21.5, "unit": "µM"}]}, {"molecule": "c1c[nH]cn1", "note": "[imidazole]", "values": [{"measurement": "IC50", "setting": "[2]", "result": 1570, "unit": "µM"}, {"measurement": "inhibition of adenylate cyclase enzyme activity (FIG. 12)", "setting": "[2]; [8]", "result": "inhibit adenylate cyclase enzyme activity"}, {"measurement": "Ratio Enzyme:Drug, molar concentration required to inhibit Adenylate Cyclase", "setting": "[2]; enzyme 0.46 nm", "result": "0.46 nm:1.57 mm"}]}, {"molecule": "CCCCCC(O)/C=C/[C@H]1C(O)CC(=O)[C@H]1C/C=C\\CCCC(=O)O", "note": "(some centres unmarked) [PGE2, reference compound]", "values": [{"measurement": "increase of steady-state Na+-dependent short circuit current (ISC)", "setting": "[3]", "result": 14, "unit": "%"}, {"measurement": "maximum PGE2-induced change in ISC", "setting": "[3]; n=5", "result": "18±3", "unit": "%"}]}, {"molecule": "CS(=O)(=O)c1ccc(C2=C(c3ccccc3)C(=O)OC2)cc1", "note": "[rofecoxib, reference compound]", "values": [{"measurement": "cholera toxin-induced secretion", "setting": "[1]; mouse, in vivo", "result": "does not inhibit cholera toxin-induced secretion"}, {"measurement": "inhibition of adenylate cyclase enzyme activity (FIG. 12)", "setting": "[2]; [8]", "result": "absence of adenylate cyclase inhibition"}]}, {"molecule": "CCCCCC(O)/C=C/[C@H]1C(n2ccnc2)CC(=O)[C@H]1C/C=C\\CCCC(=O)O", "note": "(some centres unmarked) [PGE2-imidazole, 11-deoxy-11-imidazolyl-PGE2]", "values": [{"measurement": "CT-induced fluid accumulation", "setting": "[1]; 6 hour", "result": "significantly reduced"}, {"measurement": "fluid loss following CT challenge", "setting": "[1]; mouse, in vivo", "result": "completely blocked"}, {"measurement": "inhibition of the CT fluid response", "setting": "[1]; mouse, in vivo", "result": "virtually complete inhibition"}, {"measurement": "cAMP levels in the intestinal loop fluids", "setting": "[4]", "result": "markedly reduced"}, {"measurement": "adduct remaining", "setting": "[5]", "result": 10, "unit": "%"}, {"measurement": "half-life", "setting": "[6]", "result": "~60", "unit": "h"}, {"measurement": "inhibition of CT-induced cAMP formation", "setting": "[7]", "result": "significant inhibition; also recorded: reduces cAMP levels"}, {"measurement": "reduction of cAMP levels", "setting": "[7]; 0.5 μg/ml", "result": "approximately 50%"}]}, {"molecule": "CCCCC[C@H](O)/C=C/[C@H]1C=CC(=O)[C@@H]1C/C=C\\CCCC(=O)O", "note": "[PGA2, reference compound]", "values": [{"measurement": "CT-induced fluid accumulation in murine intestinal loops", "setting": "[1]; mouse, in vivo", "result": "reduce CT-induced fluid accumulation in murine intestinal loops with lower potency"}]}, {"molecule": "N[C@@H](Cc1c[nH]cn1)C(=O)O", "note": "[L-histidine]", "values": [{"measurement": "fluid accumulation in mouse intestinal loops challenged with cholera toxin", "setting": "[1]; 6 hours", "result": "as the dose of L-histidine was increased, the amount of fluid accumulation decreased; also recorded: accumulated significantly less fluid"}, {"measurement": "reduction of fluid accumulation, statistical significance", "setting": "[1]; 6 hours", "result": "statistical significance (P<0.05)"}, {"measurement": "Difference in ISC between PGE2 and PGE2+L-histidine", "setting": "[3]", "result": "78±21", "unit": "%"}, {"measurement": "ISC, % of control", "setting": "[3]", "result": "30±9 % of control"}, {"measurement": "basal and PGE2-induced sodium transport", "setting": "[3]", "result": "reduced both basal and PGE2-induced sodium transport"}, {"measurement": "PGE2- and CT-stimulated cAMP formation in CHO cells", "setting": "[7]", "result": "reduced the capacity of both PGE2 and CT to stimulate cAMP formation"}]}, {"molecule": "CCCCC[C@H](O)/C=C/C1=C(C/C=C\\CCCC(=O)O)C(=O)CC1", "note": "[PGB2, reference compound]", "values": [{"measurement": "CT-induced fluid accumulation in murine intestinal loops", "setting": "[1]; mouse, in vivo", "result": "reduce CT-induced fluid accumulation in murine intestinal loops with lower potency"}]}, {"molecule": "Cc1ccc(-c2cc(C(F)(F)F)nn2-c2ccc(S(N)(=O)=O)cc2)cc1", "note": "[celecoxib, reference compound]", "values": [{"measurement": "CT-induced fluid accumulation in murine intestinal loops", "setting": "[1]; 6 hours", "result": "significantly reduced"}, {"measurement": "IC50", "setting": "[2]", "result": 20, "unit": "µM"}, {"measurement": "inhibition of adenylate cyclase enzyme activity (FIG. 12)", "setting": "[2]; [8]", "result": "inhibit adenylate cyclase enzyme activity"}]}, {"molecule": "CC(=O)N[C@@H](CS)C(=O)O", "note": "[NAC, N-acetyl-L-cysteine, reference compound]", "values": [{"measurement": "intestinal fluid accumulation", "setting": "[1]; mouse, in vivo", "result": "blocked all intestinal fluid accumulation"}, {"measurement": "protection against CT-induced fluid secretion in small intestinal loops", "setting": "[1]; mouse, in vivo, ip, pH 7", "result": "no protective effect"}]}, {"molecule": "COc1ccc(-n2nc(C(F)(F)F)cc2-c2ccc(Cl)cc2)cc1", "note": "[SC560, reference compound]", "values": [{"measurement": "cholera toxin-induced fluid secretion", "setting": "[1]; mouse, in vivo, sc", "result": "inhibits cholera toxin-induced fluid secretion"}]}]}
